{
  "source": "a melting point compilation (Tetko et al.; mined from patent text by program, amines drawn as free bases though some values may be those of a salt)",
  "data": [
    {"units": {"melting point": "°C"}, "values": [
      {"smiles": "N#Cc1ccc(OCCCCOc2cccc(-c3cc4cc(C#N)ccc4o3)c2)cc1", "melting point": "130 to 132"},
      {"smiles": "Cc1cc2c(cc1C(=O)CO)C(C)(C)CC(C)C2(C)C", "note": "(stereo not given)", "melting point": "81 to 82"},
      {"smiles": "CON=Cc1cc([N+](=O)[O-])c(Cl)cc1Cl", "melting point": "129 to 132"},
      {"smiles": "ON=CCc1ccccc1", "melting point": "90 to 94"},
      {"smiles": "COc1ccc(-c2cc(C)cn2-c2ccc(S(C)(=O)=O)cc2)cc1", "melting point": "159 to 161"},
      {"smiles": "O=C(O)C(=O)N1CCC(Cc2ccccc2)CC1", "melting point": "109 to 112"},
      {"smiles": "NC(=O)C1=CCCc2cc(Sc3cccc(F)c3)ccc21", "melting point": "168 to 170"},
      {"smiles": "CC12CCC3C(CC=C4CCCCC43C)C1CC(O)C2=O", "note": "(stereo not given)", "melting point": "168 to 172"},
      {"smiles": "CN(C)Cc1nnc(CN(C)C)n1-c1ccc(Cl)cc1C(=O)c1ccccc1", "melting point": "148 to 152"},
      {"smiles": "O=C1CC2(CN1)CC(=O)c1cc(Cl)cc(Cl)c12", "note": "(stereo not given)", "melting point": "226 to 228"},
      {"smiles": "Nc1ccc(C23CC(C2)C(=O)N(CC2CCCCC2)C3=O)cc1", "melting point": "140 to 146"},
      {"smiles": "CN(C)C1CCc2c(c3ccccc3n2C)C1", "note": "(stereo not given)", "melting point": "> 300"},
      {"smiles": "COC(=O)c1ccc(C(=O)NS(=O)(=O)c2ccc(CCNC(=O)CCC(C)C)cc2)cn1", "melting point": "204 to 206"},
      {"smiles": "c1csc(-c2nc3ccccc3nc2OC2CCC2)c1", "melting point": 103},
      {"smiles": "CCN1C(=O)C(C)(C)c2ccc(C(=O)Nc3ccc(F)cc3)cc21", "melting point": "179 to 181"},
      {"smiles": "O=C(O)CCC(=O)N1C2CCC(C2)C1C(=O)O", "note": "(stereo not given)", "melting point": "132 to 135"},
      {"smiles": "O=C(O)C(=O)CC(=O)c1ccc(C2CCCCC2)cc1", "melting point": "140 to 142"},
      {"smiles": "COc1ccc(C(=O)C(C)NC(=O)C(F)(F)F)cc1", "note": "(stereo not given)", "melting point": "110 to 114"},
      {"smiles": "OC(Cn1ccnc1)(c1ccccc1)c1ccc(-c2ccccc2)cc1", "note": "(stereo not given)", "melting point": 224},
      {"smiles": "CN(C)C(=O)Nc1ccc(Oc2ccnc(Cl)n2)cc1", "melting point": 192},
      {"smiles": "CCCCCCCOc1ccc(C(=O)O)cc1OCCCCCCC", "melting point": "122 to 123"},
      {"smiles": "CCc1cc2c(cc1Cl)C=C(C(=O)O)C(C(F)(F)F)O2", "note": "(stereo not given)", "melting point": "171 to 172"},
      {"smiles": "CCOC(=O)C1=Cc2cc(Br)ccc2OCC1", "melting point": "86 to 87"},
      {"smiles": "CC(C)NC(=Nc1ccc(Cl)cc1)Nc1ncccc1OCc1c(F)cccc1F", "melting point": "112 to 113"},
      {"smiles": "Nc1ccc(C(=O)N2Cc3ccccc3CC3=C2C=CC(Cl)C3)cc1", "note": "(stereo not given)", "melting point": "211 to 214"},
      {"smiles": "Cn1cncc1C(O)(c1ccc(F)cc1)c1ccc2nc(Cl)nc(-c3cccc(Cl)c3)c2c1", "note": "(stereo not given)", "melting point": 212},
      {"smiles": "CC(=O)Nc1c(Cl)ccc(C)c1Cl", "melting point": "180 to 182"},
      {"smiles": "O=C(Nc1ccncc1)C1c2ccccc2CCc2ccccc21", "melting point": "148 to 149"},
      {"smiles": "Nc1c(Cl)nc2ccccc2c1NCc1ccccn1", "melting point": "98 to 102"},
      {"smiles": "Cc1ccc(S(=O)(=O)OCCC2CCN(C(=O)c3ccccc3)CC2)cc1", "melting point": "81 to 83"},
      {"smiles": "CC(C)N(CCS(=O)(=O)c1ccc(Cl)cc1)C(=O)Oc1ccccc1", "melting point": "77.5 to 79"},
      {"smiles": "CC(C)c1cccc(C(C)C)c1NC(=O)Nc1cccc2ccc(Oc3ccc4nc(COc5ccc(CC6SC(=O)NC6=O)cc5)n(C)c4c3)cc12", "note": "(stereo not given)", "melting point": "164 to 169"},
      {"smiles": "c1cn(CCCc2ccc(OCc3coc(-c4ccsc4)n3)cc2)cn1", "melting point": "102 to 103"},
      {"smiles": "O=C(O)Cc1ccc(OCCNC(=O)C2Cc3ccccc3N2S(=O)(=O)c2ccc(-c3cccc(C(F)(F)F)c3)cc2)cc1", "note": "(stereo not given)", "melting point": 92},
      {"smiles": "CC1CCC(c2ccc(Cl)c(C(F)(F)F)c2)=NN1S(=O)(=O)c1ccc(I)cc1", "note": "(stereo not given)", "melting point": "157 to 158"},
      {"smiles": "N#CC(F)(F)C(O)(Cn1cncn1)c1ccc(F)cc1F", "note": "(stereo not given)", "melting point": "130 to 132"},
      {"smiles": "CC(C)(C)c1nc(-c2ccc3c(c2)OCO3)[nH]c1C(C)(C)C", "melting point": "175 to 178"},
      {"smiles": "O=C(O)c1ccccc1-c1nnc(-c2cccc(C(F)(F)F)c2)o1", "melting point": "141 to 159"},
      {"smiles": "COc1cc(Nc2nccc(-c3ccc(N4CCN(CCCO)CC4)nc3)n2)cc(OC)c1OC", "melting point": "116 to 117"},
      {"smiles": "O=C1c2ccccc2CN1C1CCN(CCC2c3ccccc3-c3ccccc32)CC1", "melting point": "65 to 68"}
    ]}
  ]
}
